Measured values: patent publication US20230391868A1, “COMPOSITIONS FOR AND METHODS OF TREATING CANCER” (The George Washington University, priority 2022, published 2023)

B1: IFNγ: interferon gamma, cytokine used to stimulate Cd47 upregulation (protein, UniProt P01580 23-155, looked up)
Interferon gamma: HGTVIESLESLNNYFNSSGIDVEEKSLFLDIWRNWQKDGDMKILQSQIISFYLRLFEVLKDNQAISNNISVIESHLITTFFSNSKAKKDAFMSIAKFEVNNPQVQRQAFNELIRVVHQLLPESSLRKRKRSRC

What was measured:
[1] = Laengle J, et al. (2020); cited from earlier work
THP1-derived macrophages = experiment: M1/M2 marker gene expression in THP1-derived macrophages by qRT-PCR; format: cell-based, human; conditions: gene expression (FIG. 7H)
Experimental: (§1) Macrophages were polarized to M1-like phenotype using 50 ng/mL of interferon gamma (IFNγ, 575306, Biolegend) and 100 ng/mL of bacterial lipopolysaccharide (LPS, L2880, Sigma Aldrich, St. Louis, MO) for 24 hours. To polarize macrophages towards the M2-like phenotype, macrophages were stimulated with 20 ng/mL of IL-4 (214-14, PeproTech) and 20 ng/mL of IL-13 (575904, Biolegend). THP1 monocytes were treated with 5 ng/mL of phorbol 12-myristate 13-acetate (PMA) to induce differentiation into macrophages. Once converted to macrophages, media was replaced to remove PMA prior to treatment and/or polarization. Polarization towards M1 and M2 phenotypes was performed with respective recombinant human cytokines from PeproTech: 50 ng/mL of IFNγ (300-02), 20 ng/mL IL-4 (200-04), and 20 ng/mL IL-13 (200-13). 100 ng/mL LPS was also used to polarize toward the M1 phenotype. 3. In vivo Studies.
qRT-PCR: Total RNA was extracted from cells using the Trizol reagent according to manufacturer's instructions (ThermoFisher Scientific, 15596018). Samples were then processed immediately or stored at −80° C. RNA was quantified using a NanoDrop One Spectrophotometer (ThermoFisher Scientific). The 260/280 ratios were routinely over 1.8. Sample cDNA was produced using the iScript cDNA synthesis kit (Bio-Rad, 1708891). Target mRNA was quantified using MyIQ single-color real-time PCR detection system from Bio-Rad (Bio-Rad, Hercules, CA) and iQ SYBR green Supermix (Bio-Rad, 1708882). The following primers were synthesized by Invitrogen (Waltham, MA) with sequences designed by Origene (Rockville, MD): mouse R-actin (MP200232), mouse Nos2 (MP208933), mouse MRC1 (MP207800), human R-actin (HP204660), human IL-1β (HP200544), human MRC1 (HP206121), human NOS2 (HP200591), human CD209 (HP214086), mouse SIRPα (MP215450), mouse LRP1 (MP207604), human LRP1 (HP206040), mouse MFGE8 (MP208190), human MFGE8 (HP225757), mouse CD36 (MP201923), human CD36 (HP200058), and mouse CD47 (MP201932). Primers for mouse ARG-1 (PPM31770C) and human SIRPα (QT01031051) were purchased from Qiagen (Hilden, Germany). Human CD47 primer sequences were obtained from Sudo T, et al and are 5′-[…]-3′ (sense) (SEQ ID NO:01) and 5′-[…]-3′ (antisense) (SEQ ID NO:02) (Sudo T, et al. (2017) Oncol. Lett. 14:801-809). Human CD86 primer sequences are 5′-[…]-3′ (sense) (SEQ ID NO:03) and 5′-[…]-3′ (antisense) (SEQ ID NO:04). Mouse CD80 sequences are 5′-[…]-3′ (sense) (SEQ ID NO:05) and 5′-[…]-3′ (antisense) (SEQ ID NO:06). Cycling conditions were set as per manufacturer's instructions. Single product amplification was confirmed by melting curve analysis. Quantification is expressed in arbitrary units and target mRNA levels were normalized to R-actin expression. […]

SM1 melanoma cells = experiment: Cd47 mRNA upon IFNγ stimulation in SM1 cells; format: cell-based, mouse
Experimental: (§2) qRT-PCR: Total RNA was extracted from cells using the Trizol reagent according to manufacturer's instructions (ThermoFisher Scientific, 15596018). Samples were then processed immediately or stored at −80° C. RNA was quantified using a NanoDrop One Spectrophotometer (ThermoFisher Scientific). The 260/280 ratios were routinely over 1.8. Sample cDNA was produced using the iScript cDNA synthesis kit (Bio-Rad, 1708891). Target mRNA was quantified using MyIQ single-color real-time PCR detection system from Bio-Rad (Bio-Rad, Hercules, CA) and iQ SYBR green Supermix (Bio-Rad, 1708882). The following primers were synthesized by Invitrogen (Waltham, MA) with sequences designed by Origene (Rockville, MD): mouse R-actin (MP200232), mouse Nos2 (MP208933), mouse MRC1 (MP207800), human R-actin (HP204660), human IL-1β (HP200544), human MRC1 (HP206121), human NOS2 (HP200591), human CD209 (HP214086), mouse SIRPα (MP215450), mouse LRP1 (MP207604), human LRP1 (HP206040), mouse MFGE8 (MP208190), human MFGE8 (HP225757), mouse CD36 (MP201923), human CD36 (HP200058), and mouse CD47 (MP201932). Primers for mouse ARG-1 (PPM31770C) and human SIRPα (QT01031051) were purchased from Qiagen (Hilden, Germany). […] Quantification is expressed in arbitrary units and target mRNA levels were normalized to R-actin expression.
(§3) Although the mechanism by which IFNγ drives CD47 upregulation is unclear, IFNγ expression correlates to CD47 expression in skin cutaneous melanoma (Ye Z H, et al. (2021) Transl. Oncol. 14:101162). The kinetics of Cd47 mRNA in SM1 and B16 cells upon IFNγ stimulation (100 ng/mL) were evaluated and these mouse melanoma models were determined to have different kinetics (FIG. 9A-FIG. 9B). It was determined that 12 hours was a time point for both models to sustain the IFNγ-mediated upregulation. In FIG. 9B, the role of HDAC6 inhibitors NextA and Tubastatin A in abrogating Cd47 upregulation upon stimulation with IFNγ for 12 hours was evaluated.

[2] = tested on: A31A7 macrophages and BMDMs; experiment: Macrophage M1/M2 marker gene expression by qRT-PCR; format: cell-based, mouse; conditions: A31A7; qRT-PCR (FIG. 7D-FIG. 7E)
Experimental: Bone marrow-derived macrophages were isolated from the femurs and tibias of wild-type C57/Bl6, HDAC6 knockout (C57BL/6J-Hdac6em2Lutzy/J, 029318, Jackson Laboratory), or UBC-GFP (C57BL/6-Tg(UBC-GFP)30Scha/J, 004353, Jackson Laboratory). Isolated bone marrow cells were cultured in RPMI 1640 complete medium with 10% FBS, 1% NEAA, and 1% penicillin-streptomycin in 5% CO2 at 37° C. Medium was supplemented with murine recombinant M-CSF (20 ng/mL, 576404, Biolegend) to differentiate monocytes into macrophages. Three days after bone marrow isolation, undifferentiated and floating cells were washed with PBS and replaced with fresh RPMI media. […]
as §1
qRT-PCR: Total RNA was extracted from cells using the Trizol reagent according to manufacturer's instructions (ThermoFisher Scientific, 15596018). Samples were then processed immediately or stored at −80° C. RNA was quantified using a NanoDrop One Spectrophotometer (ThermoFisher Scientific). The 260/280 ratios were routinely over 1.8. Sample cDNA was produced using the iScript cDNA synthesis kit (Bio-Rad, 1708891). Target mRNA was quantified using MyIQ single-color real-time PCR detection system from Bio-Rad (Bio-Rad, Hercules, CA) and iQ SYBR green Supermix (Bio-Rad, 1708882). The following primers were synthesized by Invitrogen (Waltham, MA) with sequences designed by Origene (Rockville, MD): mouse R-actin (MP200232), mouse Nos2 (MP208933), mouse MRC1 (MP207800), human R-actin (HP204660), human IL-1β (HP200544), human MRC1 (HP206121), human NOS2 (HP200591), human CD209 (HP214086), mouse SIRPα (MP215450), mouse LRP1 (MP207604), human LRP1 (HP206040), mouse MFGE8 (MP208190), human MFGE8 (HP225757), mouse CD36 (MP201923), human CD36 (HP200058), and mouse CD47 (MP201932). Primers for mouse ARG-1 (PPM31770C) and human SIRPα (QT01031051) were purchased from Qiagen (Hilden, Germany). Human CD47 primer sequences were obtained from Sudo T, et al and are 5′-[…]-3′ (sense) (SEQ ID NO:01) and 5′-[…]-3′ (antisense) (SEQ ID NO:02) (Sudo T, et al. (2017) Oncol. Lett. 14:801-809). Human CD86 primer sequences are 5′-[…]-3′ (sense) (SEQ ID NO:03) and 5′-[…]-3′ (antisense) (SEQ ID NO:04). Mouse CD80 sequences are 5′-[…]-3′ (sense) (SEQ ID NO:05) and 5′-[…]-3′ (antisense) (SEQ ID NO:06). Cycling conditions were set as per manufacturer's instructions. Single product amplification was confirmed by melting curve analysis. Quantification is expressed in arbitrary units and target mRNA levels were normalized to R-actin expression.

B16 melanoma cells = experiment: Cd47 mRNA upon IFNγ stimulation in B16 cells; format: cell-based, mouse
Experimental: as §2, §3

[3] = tested on: human THP1-derived macrophages; experiment: Pro-phagocytic signal gene expression in THP1-derived macrophages; format: cell-based; conditions: human THP1-derived macrophages (FIG. 8E); corroboration of NextA increase
Experimental: as §1
as §2, with “(MP201932).” for “(MP201932). Primers for mouse ARG-1 (PPM31770C) and human SIRPα (QT01031051) were purchased from Qiagen (Hilden, Germany).”

[4] = target: mouse CD47 on the surface of SM1 melanoma cells (mouse) (UniProt Q61735); experiment: flow cytometry titration on SM1 cells; free CD47 read with PE anti-mouse CD47 (miap301), bound antibody read with PE anti-rat IgG2a
[5] = IFNγ stimulation (100 ng/mL) for 12 hours

Sequence of UniProt Q61735 (Q61735 19-303): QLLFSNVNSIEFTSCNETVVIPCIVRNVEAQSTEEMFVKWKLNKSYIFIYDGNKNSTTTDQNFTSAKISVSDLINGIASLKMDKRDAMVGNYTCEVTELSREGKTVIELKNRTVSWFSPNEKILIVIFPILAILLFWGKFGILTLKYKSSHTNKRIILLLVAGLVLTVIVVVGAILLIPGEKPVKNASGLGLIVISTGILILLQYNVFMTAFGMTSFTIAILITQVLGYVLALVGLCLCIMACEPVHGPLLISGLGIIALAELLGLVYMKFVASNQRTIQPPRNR

| Molecule | effects on THP1-derived macrophage M2-like polarization (THP1-derived macrophages) | Arg1 in M2 polarized macrophages [2] | Cd80 expression in M1-like macrophages [2] | expression of pro-phagocytic signals [3] | also measured |
| --- | --- | --- | --- | --- | --- |
| O=C(CCCCCCC(=O)Nc1ccccc1)NO [SAHA, suberoylanilide hydroxamic acid] |  |  |  |  | trastuzumab-mediated phagocytosis [1]: enhance trastuzumab-mediated phagocytosis |
| CN1CCc2c(c3ccccc3n2Cc2ccc(C(=O)NO)cc2)C1 [Tubastatin A] | verified | downregulated | upregulated | corroborated | IFNγ-driven Cd47 upregulation at the transcriptional level (SM1 melanoma cells; IFNγ for 12 hours): repressed these effects; IFNγ-driven Cd47 upregulation at the transcriptional level (B16 melanoma cells; IFNγ for 12 hours): repressed these effects |
| O=C(CCCCCCC(=O)Nc1ccc([C@H]2O[C@@H](CSc3nc(-c4ccccc4)c(-c4ccccc4)o3)C[C@@H](c3ccc(CO)cc3)O2)cc1)NO [Tubacin] | verified | downregulated | upregulated | corroborated |  |
| anti-mouse CD47 (clone miap301, 127502, Biolegend) (antibody) |  |  |  |  | lowest antibody concentration that provided maximum surface CD47 blockade and epitope saturation [4]: 25 µg/mL |
| B1 |  |  |  |  | Cd47 upregulation (SM1 melanoma cells; [5]): 1.6 fold; Cd47 upregulation (B16 melanoma cells; [5]): 10 fold |
